From publication PMC11289455 (Scientific Reports, 2024)
Read-outs that look alike come from different tables or passages of the source.

Tests used:
[1] = target: T1, N neuronal α4β2 (neuronal alpha-4-beta-2 nicotinic acetylcholine receptor) (Homo sapiens, UniProt P17787+P43681); experiment: SafetyScreen44: N neuronal α4β2; assay type: binding
T1 construct: purchased Eurofins Cerep SafetyScreen44

[2] = target: T2, AR (androgen receptor) (Homo sapiens, UniProt P10275, T878A); experiment: SafetyScreen44: AR; assay type: binding
T2 construct: purchased Eurofins Cerep SafetyScreen44
T2 sequence (P10275 1-920 T878A): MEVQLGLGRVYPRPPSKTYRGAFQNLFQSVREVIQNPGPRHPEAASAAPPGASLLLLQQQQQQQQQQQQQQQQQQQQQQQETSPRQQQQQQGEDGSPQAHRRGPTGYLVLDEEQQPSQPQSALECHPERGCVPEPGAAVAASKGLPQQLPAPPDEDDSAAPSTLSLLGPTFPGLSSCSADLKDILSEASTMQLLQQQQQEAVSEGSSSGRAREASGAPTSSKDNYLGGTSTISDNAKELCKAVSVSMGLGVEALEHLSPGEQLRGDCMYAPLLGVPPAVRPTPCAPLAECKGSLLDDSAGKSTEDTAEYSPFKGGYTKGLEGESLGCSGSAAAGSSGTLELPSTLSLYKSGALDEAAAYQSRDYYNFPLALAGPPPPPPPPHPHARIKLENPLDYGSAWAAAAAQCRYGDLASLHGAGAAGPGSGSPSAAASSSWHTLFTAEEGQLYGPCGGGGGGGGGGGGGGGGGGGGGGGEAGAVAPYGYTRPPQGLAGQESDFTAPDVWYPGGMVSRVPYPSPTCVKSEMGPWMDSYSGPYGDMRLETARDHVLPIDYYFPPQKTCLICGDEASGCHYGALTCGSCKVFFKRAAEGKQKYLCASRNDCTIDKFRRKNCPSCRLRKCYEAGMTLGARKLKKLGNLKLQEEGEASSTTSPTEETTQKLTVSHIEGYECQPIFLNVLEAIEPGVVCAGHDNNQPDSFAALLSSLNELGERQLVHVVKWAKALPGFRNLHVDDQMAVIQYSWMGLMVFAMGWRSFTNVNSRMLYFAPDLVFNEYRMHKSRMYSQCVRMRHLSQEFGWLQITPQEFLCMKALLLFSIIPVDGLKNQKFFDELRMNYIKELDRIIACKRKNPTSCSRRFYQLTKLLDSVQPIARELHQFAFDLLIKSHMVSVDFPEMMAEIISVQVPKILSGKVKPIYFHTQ

[3] = target: T3, 5-HT3 (serotonin 3 receptor) (Homo sapiens, UniProt P46098); experiment: SafetyScreen44: 5-HT3; assay type: binding
T3 construct: purchased Eurofins Cerep SafetyScreen44
T3 sequence (P46098 24-478): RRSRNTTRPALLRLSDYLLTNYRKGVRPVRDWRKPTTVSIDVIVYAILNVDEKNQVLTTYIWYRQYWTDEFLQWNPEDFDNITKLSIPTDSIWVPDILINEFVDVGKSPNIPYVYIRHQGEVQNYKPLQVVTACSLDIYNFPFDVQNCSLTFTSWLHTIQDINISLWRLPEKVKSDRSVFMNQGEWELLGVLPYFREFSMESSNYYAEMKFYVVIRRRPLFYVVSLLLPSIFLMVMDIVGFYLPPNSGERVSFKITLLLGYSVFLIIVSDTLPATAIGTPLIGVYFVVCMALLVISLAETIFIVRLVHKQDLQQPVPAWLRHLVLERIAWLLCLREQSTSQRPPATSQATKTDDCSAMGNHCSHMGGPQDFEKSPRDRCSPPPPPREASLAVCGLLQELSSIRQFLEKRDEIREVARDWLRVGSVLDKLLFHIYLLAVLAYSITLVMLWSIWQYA

[4] = target: T4, 5-HT1B (serotonin 1B receptor) (Rattus norvegicus, UniProt P28564); experiment: SafetyScreen44: 5-HT1B; assay type: binding
T4 construct: purchased Eurofins Cerep SafetyScreen44
T4 sequence (P28564 whole entry): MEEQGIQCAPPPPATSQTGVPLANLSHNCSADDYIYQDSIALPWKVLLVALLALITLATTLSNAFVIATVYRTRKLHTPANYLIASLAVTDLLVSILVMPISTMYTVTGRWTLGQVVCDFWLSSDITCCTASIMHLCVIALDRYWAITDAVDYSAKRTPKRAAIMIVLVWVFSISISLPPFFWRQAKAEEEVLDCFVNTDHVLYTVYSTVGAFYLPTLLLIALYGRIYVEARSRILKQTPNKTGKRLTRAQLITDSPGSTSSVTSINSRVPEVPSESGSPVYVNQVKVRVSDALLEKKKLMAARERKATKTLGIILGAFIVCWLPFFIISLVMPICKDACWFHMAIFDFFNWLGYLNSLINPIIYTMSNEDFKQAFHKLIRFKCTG

[5] = target: T5, M2 (muscarinic acetylcholine receptor M2) (Homo sapiens, UniProt P08172); experiment: SafetyScreen44: M2; assay type: binding
T5 construct: purchased Eurofins Cerep SafetyScreen44
T5 sequence (P08172 1-466): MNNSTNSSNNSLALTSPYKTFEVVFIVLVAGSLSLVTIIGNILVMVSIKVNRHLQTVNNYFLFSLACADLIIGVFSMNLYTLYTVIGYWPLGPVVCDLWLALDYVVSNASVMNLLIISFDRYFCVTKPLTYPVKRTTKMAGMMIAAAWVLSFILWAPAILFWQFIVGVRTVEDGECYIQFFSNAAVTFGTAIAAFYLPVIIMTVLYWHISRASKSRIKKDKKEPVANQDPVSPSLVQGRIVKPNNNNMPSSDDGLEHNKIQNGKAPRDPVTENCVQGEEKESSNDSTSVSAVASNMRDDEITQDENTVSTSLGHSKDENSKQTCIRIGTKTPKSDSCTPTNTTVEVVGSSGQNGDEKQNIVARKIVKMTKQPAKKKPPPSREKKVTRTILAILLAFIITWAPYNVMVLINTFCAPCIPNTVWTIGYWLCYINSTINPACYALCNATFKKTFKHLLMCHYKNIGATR

[6] = target: T6, PDE4D2 (cAMP-specific 3’,5’-cyclic phosphodiesterase 4D2) (Homo sapiens, UniProt Q08499); experiment: SafetyScreen44: PDE4D2; assay type: biochemical
T6 construct: purchased Eurofins Cerep SafetyScreen44
T6 sequence (Q08499 303-809 limits assumed): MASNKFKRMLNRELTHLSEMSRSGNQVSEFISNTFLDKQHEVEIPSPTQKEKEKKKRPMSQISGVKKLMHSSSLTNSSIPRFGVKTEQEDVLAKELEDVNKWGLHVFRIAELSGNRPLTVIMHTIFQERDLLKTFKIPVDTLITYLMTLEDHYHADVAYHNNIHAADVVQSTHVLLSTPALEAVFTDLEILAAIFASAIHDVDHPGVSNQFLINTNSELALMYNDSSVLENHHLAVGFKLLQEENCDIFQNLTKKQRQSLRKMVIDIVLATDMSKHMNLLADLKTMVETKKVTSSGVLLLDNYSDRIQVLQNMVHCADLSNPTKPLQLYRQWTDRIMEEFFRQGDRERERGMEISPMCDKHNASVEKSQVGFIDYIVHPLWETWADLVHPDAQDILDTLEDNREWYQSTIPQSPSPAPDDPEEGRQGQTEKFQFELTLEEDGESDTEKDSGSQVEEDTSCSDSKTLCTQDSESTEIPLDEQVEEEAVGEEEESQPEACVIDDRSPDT

[7] = target: T7, 5-HT transporter (Homo sapiens, UniProt P31645); experiment: SafetyScreen44: 5-HT transporter; assay type: binding
T7 construct: purchased Eurofins Cerep SafetyScreen44
T7 sequence (P31645 whole entry): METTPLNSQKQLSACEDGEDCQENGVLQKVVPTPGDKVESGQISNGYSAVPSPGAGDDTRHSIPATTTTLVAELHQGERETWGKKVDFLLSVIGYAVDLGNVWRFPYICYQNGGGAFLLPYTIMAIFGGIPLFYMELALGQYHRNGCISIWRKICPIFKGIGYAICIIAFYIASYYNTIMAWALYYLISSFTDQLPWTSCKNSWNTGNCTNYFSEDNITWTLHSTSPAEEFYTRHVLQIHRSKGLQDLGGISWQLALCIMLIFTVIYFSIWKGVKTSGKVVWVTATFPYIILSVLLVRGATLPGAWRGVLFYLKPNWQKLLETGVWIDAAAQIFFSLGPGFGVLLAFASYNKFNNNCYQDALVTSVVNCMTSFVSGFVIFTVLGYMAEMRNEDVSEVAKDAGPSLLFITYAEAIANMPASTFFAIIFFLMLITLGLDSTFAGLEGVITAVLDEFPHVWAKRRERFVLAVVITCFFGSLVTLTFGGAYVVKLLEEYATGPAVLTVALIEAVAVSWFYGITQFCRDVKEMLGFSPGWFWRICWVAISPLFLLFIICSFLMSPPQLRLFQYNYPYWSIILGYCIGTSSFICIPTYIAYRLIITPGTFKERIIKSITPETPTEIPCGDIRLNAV

[8] = target: T8, Norepinephrine transporter (Homo sapiens, UniProt P23975); experiment: SafetyScreen44: norepinephrine transporter; assay type: binding
T8 construct: purchased Eurofins Cerep SafetyScreen44
T8 sequence (P23975 whole entry): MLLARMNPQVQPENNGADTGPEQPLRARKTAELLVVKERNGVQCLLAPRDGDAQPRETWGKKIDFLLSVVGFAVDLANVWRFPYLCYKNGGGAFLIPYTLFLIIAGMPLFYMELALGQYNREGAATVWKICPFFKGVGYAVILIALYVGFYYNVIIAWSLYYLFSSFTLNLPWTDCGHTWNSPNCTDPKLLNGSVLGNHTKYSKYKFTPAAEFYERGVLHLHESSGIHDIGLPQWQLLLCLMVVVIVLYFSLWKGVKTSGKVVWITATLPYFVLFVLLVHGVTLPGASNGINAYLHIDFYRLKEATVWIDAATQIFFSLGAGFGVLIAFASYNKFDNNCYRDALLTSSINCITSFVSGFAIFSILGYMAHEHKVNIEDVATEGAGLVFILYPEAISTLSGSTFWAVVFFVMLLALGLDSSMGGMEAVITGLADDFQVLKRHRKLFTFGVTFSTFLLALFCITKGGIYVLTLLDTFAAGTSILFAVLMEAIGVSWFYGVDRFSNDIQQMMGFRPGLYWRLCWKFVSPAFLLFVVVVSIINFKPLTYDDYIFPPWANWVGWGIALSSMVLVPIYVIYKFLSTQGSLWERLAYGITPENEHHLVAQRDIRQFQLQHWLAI

[9] = target: T9, Lck kinase (lymphocyte-specific protein tyrosine kinase) (Homo sapiens, UniProt P06239); experiment: SafetyScreen44: Lck kinase; assay type: biochemical
T9 construct: purchased Eurofins Cerep SafetyScreen44
T9 sequence (P06239 whole entry): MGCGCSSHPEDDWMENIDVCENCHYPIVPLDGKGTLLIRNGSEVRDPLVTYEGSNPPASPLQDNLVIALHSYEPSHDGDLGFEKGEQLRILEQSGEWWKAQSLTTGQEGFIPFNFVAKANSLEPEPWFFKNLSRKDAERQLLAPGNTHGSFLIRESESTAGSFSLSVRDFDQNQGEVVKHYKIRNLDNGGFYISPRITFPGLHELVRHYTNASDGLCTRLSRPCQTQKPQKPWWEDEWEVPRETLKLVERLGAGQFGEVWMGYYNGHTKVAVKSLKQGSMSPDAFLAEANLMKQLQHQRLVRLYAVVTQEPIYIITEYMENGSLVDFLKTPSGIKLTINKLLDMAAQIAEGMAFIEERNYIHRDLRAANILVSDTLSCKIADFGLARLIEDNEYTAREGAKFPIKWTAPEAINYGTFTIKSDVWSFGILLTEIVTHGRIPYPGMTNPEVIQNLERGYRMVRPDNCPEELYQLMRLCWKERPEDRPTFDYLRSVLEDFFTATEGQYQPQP

T1 sequence (P43681 29-627 limits assumed): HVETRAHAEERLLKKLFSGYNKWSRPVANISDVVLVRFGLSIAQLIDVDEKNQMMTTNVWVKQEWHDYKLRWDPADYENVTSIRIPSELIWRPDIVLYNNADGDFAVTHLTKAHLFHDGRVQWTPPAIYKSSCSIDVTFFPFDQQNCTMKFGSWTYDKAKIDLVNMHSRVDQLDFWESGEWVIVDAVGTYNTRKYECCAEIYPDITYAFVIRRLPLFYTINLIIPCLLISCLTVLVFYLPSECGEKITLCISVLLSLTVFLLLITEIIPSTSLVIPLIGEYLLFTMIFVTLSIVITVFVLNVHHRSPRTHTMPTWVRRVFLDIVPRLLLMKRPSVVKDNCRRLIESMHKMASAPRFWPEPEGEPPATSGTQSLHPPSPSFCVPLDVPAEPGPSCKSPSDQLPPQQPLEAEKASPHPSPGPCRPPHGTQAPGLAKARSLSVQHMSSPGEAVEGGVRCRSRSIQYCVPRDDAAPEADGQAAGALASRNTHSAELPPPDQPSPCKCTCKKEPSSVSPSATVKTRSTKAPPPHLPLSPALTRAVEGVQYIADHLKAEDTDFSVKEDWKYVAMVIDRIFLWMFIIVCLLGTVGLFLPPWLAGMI
T1 sequence (P17787 26-502): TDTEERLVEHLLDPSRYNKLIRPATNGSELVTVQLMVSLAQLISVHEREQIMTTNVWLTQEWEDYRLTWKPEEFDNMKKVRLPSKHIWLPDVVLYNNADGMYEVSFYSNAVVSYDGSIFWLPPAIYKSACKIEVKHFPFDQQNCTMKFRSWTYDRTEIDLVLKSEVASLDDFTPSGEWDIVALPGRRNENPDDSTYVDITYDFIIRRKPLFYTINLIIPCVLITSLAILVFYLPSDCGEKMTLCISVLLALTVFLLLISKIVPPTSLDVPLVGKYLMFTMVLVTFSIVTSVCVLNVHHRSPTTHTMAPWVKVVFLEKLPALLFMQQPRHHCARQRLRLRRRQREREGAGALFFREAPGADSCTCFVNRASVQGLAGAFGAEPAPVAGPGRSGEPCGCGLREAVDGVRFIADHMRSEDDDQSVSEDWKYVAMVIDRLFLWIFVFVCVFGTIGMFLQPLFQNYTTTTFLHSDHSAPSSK

CC(=O)NCCCC[C@@H]1NC(=O)[C@H](Cc2c[nH]c3c(C)cccc23)NC(=O)[C@H]([C@@H](C)O)NC(=O)[C@H](CC(N)=O)NC(=O)[C@@H](NC(C)=O)C(C)(C)SSC(C)(C)[C@@H](C(=O)N[C@@H](Cc2ccc(OCCN)cc2)C(=O)N[C@@H](Cc2ccc3ccccc3c2)C(=O)NC2(C(=O)N[C@@H](CCC(=O)O)C(=O)N[C@@H](CC(N)=O)C(=O)N[C@@H](Cc3cccnc3)C(=O)N(C)CC(N)=O)CCOCC2)NC1=O [JNJ-77242113, S^3,1,S^3,6-cyclo[N-acetyl-3-sulfanyl-L-valyl-L-asparaginyl-L-threonyl-7-methyl-L-tryptophyl-N^6-acetyl-L-lysyl-3-sulfanyl-L-valyl-O-(2-aminoethyl)-L-tyrosyl-3-(naphthalen-2-yl)-L-alanyl-4-aminooxan-4-carbonyl-L-α-glutamyl-L-asparaginyl-3-(pyridin-3-yl)-L-alanyl-N^2-methylglycinamide]]
inhibition at 10 µM ([1]; 1st run, read-out: Percent inhibition of control ligand binding, N neuronal α4β2, 1st run): -10.4% | inhibition at 10 µM ([1]; 2nd run, read-out: Percent inhibition of control ligand binding, N neuronal α4β2, 2nd run): -7.5% | inhibition at 10 µM ([1]; mean of 2 runs, read-out: Percent inhibition of control ligand binding, N neuronal α4β2, Mean): -8.9% | inhibition at 10 µM ([2]; 1st run, read-out: Percent inhibition of control ligand binding, AR, 1st run): -5.6% | inhibition at 10 µM ([2]; 2nd run, read-out: Percent inhibition of control ligand binding, AR, 2nd run): -3.7% | inhibition at 10 µM ([2]; mean of 2 runs, read-out: Percent inhibition of control ligand binding, AR, Mean): -4.7% | inhibition at 10 µM ([3]; 1st run, read-out: Percent inhibition of control ligand binding, 5-HT3, 1st run): 0.7% | inhibition at 10 µM ([3]; 2nd run, read-out: Percent inhibition of control ligand binding, 5-HT3, 2nd run): 3.4% | inhibition at 10 µM ([3]; mean of 2 runs, read-out: Percent inhibition of control ligand binding, 5-HT3, Mean): 2.1% | inhibition at 10 µM ([4]; 1st run, read-out: Percent inhibition of control ligand binding, 5-HT1B, 1st run): 0% | inhibition at 10 µM ([4]; 2nd run, read-out: Percent inhibition of control ligand binding, 5-HT1B, 2nd run): -9.8% | inhibition at 10 µM ([4]; mean of 2 runs, read-out: Percent inhibition of control ligand binding, 5-HT1B, Mean): -4.9% | inhibition at 10 µM ([5]; 1st run, read-out: Percent inhibition of control ligand binding, M2, 1st run): 0.3% | inhibition at 10 µM ([5]; 2nd run, read-out: Percent inhibition of control ligand binding, M2, 2nd run): 2% | inhibition at 10 µM ([5]; mean of 2 runs, read-out: Percent inhibition of control ligand binding, M2, Mean): 1.2% | inhibition at 10 µM ([6]; 1st run, read-out: Percent inhibition of control ligand binding, PDE4D2, 1st run): -22.6% | inhibition at 10 µM ([6]; 2nd run, read-out: Percent inhibition of control ligand binding, PDE4D2, 2nd run): -11.7% | inhibition at 10 µM ([6]; mean of 2 runs, read-out: Percent inhibition of control ligand binding, PDE4D2, Mean): -17.1% | inhibition at 10 µM ([7]; 1st run, read-out: Percent inhibition of control ligand binding, 5-HT transporter, 1st run): -19.9% | inhibition at 10 µM ([7]; 2nd run, read-out: Percent inhibition of control ligand binding, 5-HT transporter, 2nd run): 1.4% | inhibition at 10 µM ([7]; mean of 2 runs, read-out: Percent inhibition of control ligand binding, 5-HT transporter, Mean): -9.2% | inhibition at 10 µM ([8]; 1st run, read-out: Percent inhibition of control ligand binding, Norepinephrine transporter, 1st run): -1.3% | inhibition at 10 µM ([8]; 2nd run, read-out: Percent inhibition of control ligand binding, Norepinephrine transporter, 2nd run): -0.6% | inhibition at 10 µM ([8]; mean of 2 runs, read-out: Percent inhibition of control ligand binding, Norepinephrine transporter, Mean): -1% | inhibition at 10 µM ([9]; 1st run, read-out: Percent inhibition of control ligand binding, Lck kinase, 1st run): 8.6% | inhibition at 10 µM ([9]; 2nd run, read-out: Percent inhibition of control ligand binding, Lck kinase, 2nd run): -2.3% | inhibition at 10 µM ([9]; mean of 2 runs, read-out: Percent inhibition of control ligand binding, Lck kinase, Mean): 3.1%
